This note sets out measurements from ChEMBL document CHEMBL1201862, “PubChem BioAssay data set” (2004).

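Exposure lasted 48 hours, with cells grown in 96-well plates and compounds tested at five concentrations. GI50 is the concentration that inhibits growth by half.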 The source made the active and inactive calls. No stated cut-off is given here; in the data, active = GI50 up to about 1.1 µM and inactive = higher. Some results are limits rather than exact numbers.

Some test systems named below: DU-145; EKVX; HCT-15; HOP-92; HT-29; LOX IMVI; M14; MCF7; MDA-MB-435; Malme-3M; OVCAR-3; OVCAR-8; SF-268; SF-295; SN12C; SNB-19; SNB-75; U-251; UACC-62; UO-31.
Holding throughout (assay): NCI tumour cell line growth inhibition, 48 h

Turning to `CCOC(=O)C(O)(NC(C)=O)C(F)(F)F` (stereo not given), the GI50 is > 100 µM (inactive) in the assay on DU-145; > 100 µM (inactive) in the assay with EKVX; greater than 100 µM in the assay on HCT-15; 26.2 µM (inactive) with HOP-92; > 100 µM (inactive) with HT-29; > 100 µM (inactive) in the assay on LOX IMVI. The GI50 in the assay on M14, in the assay on MCF7, in the assay on MDA-MB-435, with Malme-3M, in the assay with OVCAR-3 and with OVCAR-8 was > 100 µM (inactive) throughout. Further, the GI50 in the assay on SF-268, in the assay with SF-295, with SN12C, in the assay on SNB-19, with SNB-75 and with U-251 was > 100 µM (inactive) each time. Also, the GI50 in the assay on UACC-62 and in the assay on UO-31 was > 100 µM (inactive) each time.
As to `Cc1nc2cc(/N=N/c3c(C)noc3C)ccc2[nH]1`, the GI50 in the assay with DU-145 is 27.7 µM (inactive); in the assay on EKVX it was 18.2 µM (inactive); in the assay with HCT-15 it was 27.2 µM; with HOP-92, 14.9 µM (inactive); in the assay on HT-29 it was 17.7 µM (inactive); with LOX IMVI it was 16.6 µM (inactive). Besides, the GI50 was 26.5 µM (inactive) in the assay on M14; 18.2 µM (inactive) with MCF7; 21.3 µM (inactive) in the assay with MDA-MB-435; 25.9 µM (inactive) in the assay on Malme-3M; 18.1 µM (inactive) in the assay with OVCAR-3; 24.5 µM (inactive) with OVCAR-8. The GI50 in the assay on SF-268 is 26.6 µM (inactive); in the assay with SF-295, 23.4 µM (inactive); with SN12C, 33.6 µM (inactive); in the assay with SNB-19, 43.9 µM (inactive); in the assay on SNB-75, 5.28 µM (inactive); in the assay with U-251, 28.4 µM (inactive). In addition, the GI50 in the assay with UACC-62 is 27 µM (inactive); in the assay on UO-31 it was 13.9 µM (inactive).
With `NC(CO)C(=O)NCC(=O)O` (stereo not given), the GI50 with DU-145 was > 100 µM (inactive); with EKVX it was > 100 µM (inactive); in the assay on HCT-15 it was greater than 100 µM; in the assay on HOP-92 it was > 100 µM (inactive); in the assay with HT-29 it was > 100 µM (inactive); in the assay on LOX IMVI it was > 100 µM (inactive). Also, the GI50 in the assay with M14, with MCF7, with MDA-MB-435, in the assay with Malme-3M, in the assay with OVCAR-3 and in the assay on OVCAR-8 was > 100 µM (inactive) throughout. For the same compound, the GI50 with SF-268, in the assay with SF-295, in the assay on SN12C, with SNB-19, with SNB-75 and with U-251 was > 100 µM (inactive) each time. Besides, the GI50 in the assay on UACC-62 and with UO-31 was > 100 µM (inactive) in each case.
With `CC1C=CN(N(C)C)C2=C1C(=O)c1cnccc1C2=O` (stereo not given), the GI50 was 0.372 µM (active) with DU-145; 0.59 µM (active) in the assay with EKVX; 0.231 µM in the assay on HCT-15; 2.07 µM (inactive) in the assay with HOP-92; 0.617 µM (active) in the assay on HT-29; 0.129 µM (active) with LOX IMVI. Also, the GI50 in the assay on M14 is 0.424 µM (active); in the assay with MCF7 it was 0.274 µM (active); in the assay with MDA-MB-435 it was 0.186 µM (active); in the assay on Malme-3M it was 0.334 µM (active); with OVCAR-3 it was 0.792 µM (active); in the assay on OVCAR-8 it was 0.883 µM (active). The GI50 in the assay with SF-268 is 0.975 µM (active); with SF-295 it was 0.676 µM (active); with SN12C, 0.168 µM (active); with SNB-19 it was 0.832 µM (active); with SNB-75, 0.315 µM (active); with U-251 it was 0.417 µM (active). Further, the GI50 in the assay on UACC-62 and in the assay on UO-31 was 0.167 µM (active) throughout.
Regarding `CC(C)Oc1c(O)c2c3c(oc(=O)n3C=CC2c2ccccc2F)c1OC(C)C` (stereo not given), the GI50 in the assay on DU-145 was 63.8 µM (inactive); in the assay on EKVX, 41.1 µM (inactive); with HCT-15, 33 µM; in the assay on HOP-92, 28.1 µM (inactive); in the assay with HT-29, 21.7 µM (inactive); with LOX IMVI, 17.5 µM (inactive). Moreover, the GI50 in the assay on M14 was 24.8 µM (inactive); with MCF7 it was 28.8 µM (inactive); with MDA-MB-435, 26.3 µM (inactive); in the assay on Malme-3M it was 39.1 µM (inactive); with OVCAR-3, 44.1 µM (inactive); in the assay on OVCAR-8, 41.8 µM (inactive). Moreover, the GI50 in the assay with SF-268 was 64.9 µM (inactive); in the assay on SF-295 it was 25.6 µM (inactive); in the assay with SN12C, 38.4 µM (inactive); in the assay with SNB-19, 39.3 µM (inactive); with SNB-75 it was 20.7 µM (inactive); in the assay with U-251 it was 35.9 µM (inactive). The GI50 is 21.1 µM (inactive) in the assay on UACC-62 and 24.4 µM (inactive) with UO-31.
As for `CC[C@@]12CCC(=S)N(CCSc3ccccc3)[C@@H]1c1c(n(S(=O)(=O)c3ccc(OC)cc3)c3ccccc13)CC2`, the GI50 was > 100 µM (inactive) in the assay with DU-145; > 100 µM (inactive) in the assay with EKVX; greater than 100 µM with HCT-15; 73.6 µM (inactive) with HOP-92; > 100 µM (inactive) with HT-29; > 100 µM (inactive) in the assay on LOX IMVI. The GI50 in the assay on M14, with MCF7, in the assay on MDA-MB-435, with Malme-3M, in the assay on OVCAR-3 and with OVCAR-8 was > 100 µM (inactive) in each case. Moreover, the GI50 in the assay on SF-268 was > 100 µM (inactive); in the assay with SF-295, > 100 µM (inactive); in the assay with SN12C, > 100 µM (inactive); in the assay with SNB-19 it was 32.9 µM (inactive); with SNB-75 it was 46.3 µM (inactive); in the assay with U-251, > 100 µM (inactive). The GI50 with UACC-62 and in the assay with UO-31 was > 100 µM (inactive) each time.
For the compound `CSC1=N/C(=C\c2ccc(C)cc2)C(=O)N1CN1CCCCC1`, the GI50 with DU-145 was > 100 µM (inactive); in the assay with EKVX, 75.3 µM (inactive); in the assay with HCT-15, 73.8 µM; in the assay on HOP-92, 67.3 µM (inactive); with HT-29, 38.5 µM (inactive); in the assay with LOX IMVI, 34.3 µM (inactive). For the same compound, the GI50 is > 100 µM (inactive) in the assay with M14; 88.1 µM (inactive) with MCF7; > 100 µM (inactive) with MDA-MB-435; > 100 µM (inactive) with Malme-3M; > 100 µM (inactive) with OVCAR-3; > 100 µM (inactive) in the assay with OVCAR-8. The GI50 was 61.8 µM (inactive) in the assay with SF-268; > 100 µM (inactive) in the assay on SF-295; > 100 µM (inactive) in the assay on SN12C; > 100 µM (inactive) in the assay with SNB-19; 69.5 µM (inactive) with SNB-75; > 100 µM (inactive) with U-251. Moreover, the figures for the GI50 in the assay with UACC-62 and in the assay with UO-31 were > 100 µM (inactive) and 37.2 µM (inactive), respectively.
As for `CCCCCC(/C=C/[C@@H]1CC(=O)C[C@H]1O[Si](C)(C)C(C)(C)C)OCOCCOC` (stereo not given in full), the GI50 with DU-145 is 16.3 µM (inactive); with EKVX, 6.31 µM (inactive); in the assay with HCT-15 it was 3.86 µM; with HOP-92, 1.97 µM (inactive); in the assay on HT-29, 3.48 µM (inactive); in the assay with LOX IMVI, 2.7 µM (inactive). The GI50 in the assay on M14 was 4.04 µM (inactive); with MCF7, 3.65 µM (inactive); with MDA-MB-435 it was 2.02 µM (inactive); in the assay on Malme-3M, 2.35 µM (inactive); in the assay with OVCAR-3 it was 3.93 µM (inactive); in the assay with OVCAR-8, 4.23 µM (inactive). Moreover, the GI50 in the assay with SF-268 is 2.98 µM (inactive); in the assay with SF-295 it was 11 µM (inactive); in the assay on SN12C it was 8.43 µM (inactive); with SNB-19, 4.52 µM (inactive); with SNB-75, 2.19 µM (inactive); with U-251, 2.52 µM (inactive). Moreover, the GI50 in the assay on UACC-62 was 2.7 µM (inactive); in the assay on UO-31 it was 2.42 µM (inactive).
As for `CC[C@@H]1CC[C@@H]2[C@H](CC[C@]3(C)[C@@H](OC(C)=O)CC[C@@H]23)[C@H]1COC(C)=O`, the GI50 in the assay with DU-145 is > 100 µM (inactive); with EKVX, 31.6 µM (inactive); in the assay on HCT-15 it was 23.9 µM; with HOP-92 it was 29 µM (inactive); in the assay on HT-29, 18.2 µM (inactive); with LOX IMVI, 17.4 µM (inactive). For the same compound, the GI50 was 25.4 µM (inactive) in the assay on M14; 31.6 µM (inactive) in the assay with MCF7; 22.5 µM (inactive) in the assay on MDA-MB-435; 18.4 µM (inactive) in the assay with Malme-3M; 17.4 µM (inactive) with OVCAR-3; 23 µM (inactive) with OVCAR-8. Also, the GI50 was 21.6 µM (inactive) in the assay with SF-268; 25.2 µM (inactive) with SF-295; 22.9 µM (inactive) in the assay with SN12C; 36.9 µM (inactive) in the assay with SNB-19; 40.6 µM (inactive) in the assay on SNB-75; 19.5 µM (inactive) with U-251. The values for the GI50 in the assay with UACC-62 and with UO-31 were 18.1 µM (inactive) and > 100 µM (inactive), respectively.
